The target of assay [1] is T1, endogenously expressed FOXC2 (Homo sapiens, UniProt Q99958).
T1 construct: endogenous in cells; host or cells: MDA-MB-231
T1 sequence (Q99958 1-501): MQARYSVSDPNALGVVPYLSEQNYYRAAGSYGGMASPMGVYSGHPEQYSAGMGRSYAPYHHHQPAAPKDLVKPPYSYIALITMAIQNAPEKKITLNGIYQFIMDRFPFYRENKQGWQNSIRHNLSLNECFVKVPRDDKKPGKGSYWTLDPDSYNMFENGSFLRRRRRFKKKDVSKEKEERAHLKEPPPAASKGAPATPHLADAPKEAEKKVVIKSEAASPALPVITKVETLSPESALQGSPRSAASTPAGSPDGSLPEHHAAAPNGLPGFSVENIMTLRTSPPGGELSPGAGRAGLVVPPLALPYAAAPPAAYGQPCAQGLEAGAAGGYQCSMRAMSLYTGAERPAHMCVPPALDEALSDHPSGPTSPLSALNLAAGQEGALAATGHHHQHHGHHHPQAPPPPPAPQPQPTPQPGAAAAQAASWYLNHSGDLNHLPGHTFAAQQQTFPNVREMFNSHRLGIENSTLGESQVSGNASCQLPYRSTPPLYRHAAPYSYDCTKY
As to the kind of experiment: Drug affinity responsive target stability (DARTS) assay with MDA-MB-231 cell lysate. The class given is binding. The conditions noted are these: 20 μM, Western blot. The procedure: As recombinant FOXC2 was used for the screening and the binding affinity determination, it was important to examine if MC-1-F2 binds to endogenously expressed FOXC2. To this end, a drug affinity responsive target stability assay (DARTS) was performed for MC-1-F2 and MC-C with cell lysate of MDA-MB-231 cells (FIG. 2B). In DARTS, the binding of a small molecule to its cellular target increases protease resistance of the target protein (Pai et al., 2015).
MDA-MB-231 cell lysate was harvested and incubated with 600 μL of Triton X-100 lysis buffer (50 mM Tris-HCl, 150 mM NaCl, 1 mM EDTA, 1% Triton X-100, pH 8.0) with protease inhibitor and 150 μL of phosphate inhibitor was added. Then frozen overnight followed by addition of 66.7 μL of 10×TNC buffer (1 M Tris-HCl, 5 M NaCl, 1 M CaCl2, pH 8.0) and gently mixed. The lysate was further split into 2 test tubes: Tube (1) 300 μL, Tube (2) 300 μL of cell lysate. The samples were incubated in desired concentration of compounds for 1 hour at room temperature and gently mixed. Once done the lysate of each condition was further split into 5 test tubes for each pronase condition. Pronase stock solution was thawed prior to use and 2 μL of each concentration were added to each tube and allowed to incubate for 20-30 minutes, followed by the addition of SDS loading buffer to stop pronase digestion followed by Western blot analysis.
In general terms: Immunoblotting shows a protein as a band on a membrane.

Assay [2] deals with DU145 cells. The assay can be described thus: MTT cell viability assay, DU145. The class given is cell-based. The conditions noted are these: Homo sapiens, DU-145, 24 hour treatment. How it is done: In order to determine the EC50 of MC-1-F2, an MTT assay on cell viability was performed in both DU145 and PC3.
Cell viability was assessed by MTT (3-(4,5-Dimethylthiazol-2-yl)-2,5-Diphenyltetrazolium Bromide) assay 5,000 cells were seeded on a 96-well cell culture plate and were incubated for at least 24 hours prior to drug treatment. The MTT reagent (Fisher Scientific) was added to the culture medium 3 hours prior to the end of compound incubation. The reaction took place in the 37° C. incubator with 5% CO2 for 3 hours. Cell culture medium was then removed from the wells. Cells with the insoluble purple formazan were lysed with DMSO for 10 mins at room temperature, 200 μL per well. Absorbance was read at 570 nm using a plate reader.
(Formazan colour is commonly taken as a measure of viable cells.)

Another assay relates to PC3 cells. The assay can be described thus: Western blot of EMT, CSC markers and AR in PC3. It counts as cell-based. The note with it: PC3, 20 μM, 48 hours. An excerpt: Due to our interest in CRPC the cell lines DU145 and PC3 were chosen due to their chemoresistance to high concentrations of enzalutamide, androgen independence, and relatively high expression of FOXC2 (FIGS. 30A&B). First, the effect of MC-1-F2 on the inhibition of EMT markers was examined (FIGS. 26A-G). […] The variability in E-cadherin expression can be due to a different mode of action the ligand MC-1-F2 is having on prostate cancer cells, possibly a time dependent effect of the ligand.
After confirmation of the ligand's ability to block EMT, the ligand's ability to decrease cancer stem cell (CSC) characteristics was determined. CRPC is plagued by a higher ratio of CSC to normal prostate cells, leading to the acquired characteristics of higher proliferative and self-renewal capabilities (Yun et al., 2016). CSC markers, Nanog, C-myc and KLF4, were examined.
50 μg of total protein per sample was incubated with 4× loading buffer at 100° C. for 5 min. Protein samples were then loaded into a polyacrylamide gel and subjected to SDS-PAGE. Resolved proteins were then transferred by a wet transfer method to a PVDF membrane at 100 V for 1 hour using a BioRad Mini Trans-Blot Electrophoresis Transfer Cell. Upon the completion of wet transfer, the membrane was then blocked with 5% (w/v) fat-free milk in 1× Tris-buffered saline/0.1% (v/v) Tween-20 (TBS-T) for at least 1 hour. Then incubated with the respective primary antibodies diluted in 5% BSA in 1×TBST at 4° C. overnight. The following day exposed to 1:1000 dilution of anti-mouse […] secondary antibodies in 5% (w/v) fat-free milk in 1×TBS-T for 1 hour at room temperature. The probed proteins were then detected for chemiluminescent signal using SuperSignal Chemiluminescent Substrate (PIERCE). Pierce antibodies: B-actin, and all other antibodies used are from cell signaling.

For another assay, the system named is LNCaP cells. The assay can be described thus: Transwell invasion assay, LNCaP. The class given is cell-based. The conditions noted are these: androgen-dependent, low FOXC2 expression, 20 μM, 24 hours. How it is done:
(§1) Following determination of both inhibition of EMT and CSC properties, the inhibition of the migratory and invasive capabilities of both cell lines following MC-1-F2 treatment was examined through the use of a transwell invasion assay.
(§2) Matrigel invasion chambers (Corning) were allowed to come to room temperature and allowed to rehydrate for 2 hours in a cell incubator. Cells were treated 24 hours prior to assay and starved in 2% FBS in DMEM for 2 hours prior to assay. A cell suspension containing 5×10^4 cells/mL was prepared. Chemoattractant (DMEM+10% FBS) was added to the bottom of the wells. Using forceps, the inserts were transferred inside the wells and 0.5 mL of cell suspension was immediately added. The chambers were incubated for 22 hours in a humidified tissue culture incubator. After the 22 hours, the non-invading cells were removed by scrubbing the surface of the membrane. The cells were fixated with 4% formaldehyde solution for 2 minutes at room temperature. Followed by permeabilization of the membrane with 100% MeOH for 20 minutes at room temperature. The cells were stained with 0.5% crystal violet solution and several images of the wells were then taken and total number of cells counted for analysis.

Assay [3] relates to DU145 cells. As to the kind of experiment: Transwell invasion assay, DU145. The class given is cell-based. The note with it: DU145, 24 hours, vs DMSO. The procedure: as §1, §2

For `N=C(N)NCCCCNc1nc(Nc2ccc(Oc3ccccc3)cc2)nc(N2CCN(c3nc(N)nc(Nc4ccc(N5CCOCC5)cc4)n3)CC2)n1` [MC-1-F2], in assay [1], the “protection of FOXC2 from pronase-mediated proteolysis (DARTS)” value was “protection of FOXC2 from pronase-mediated proteolysis”. Moreover, the “proteolysis of β-actin (DARTS)” value in assay [1] (pronase) is “did not affect the proteolysis β-actin”. In the assay with DU145 cells [2], the EC50 (in general, the midpoint of the concentration-response curve) amounted to 48.1 µM. Besides, in the assay on PC3 cells, the AR expression entry is given as “no effect on AR expression”; the “CSC markers Nanog, C-myc and KLF4” value was “significant decreases”; the E-cadherin expression levels result was “no recovery in the expression levels of E-cadherin”; the “EMT markers ZEB1, Vimentin, N-cadherin and Slug” value is listed as “inhibit various EMT markers”. The “epithelial marker ZO-1 expression” value in the assay on PC3 cells was “recovery of the epithelial marker ZO-1”. The “number of invasive cells (transwell invasion)” value with LNCaP cells is on record as “saw to change in the number of invasive cells”. Also, the “invasiveness (transwell invasion)” value with DU145 cells [3] was “remarkable inhibition in invasiveness”.

For the origin of these results see patent US10814010B2, “FOXC2 inhibitor and methods of use thereof” (The Board of Regents of The University of Texas System, priority 2018, dated 2020).
